Consider seven molecules from patent US6387417B1, “Bactericide against vancomycin resistant enterococcus” (priority 2000, dated 2002).

Like-named read-outs stand apart in the source and are kept apart here.

In general, MIC refers to the lowest concentration that inhibits growth of the organism.

The test system of data set [1] is Enterococcus faecium KIH-237. Put plainly: MIC of antibiotics for the strain used. In kind it is cell-based. The note with it: KIH237, E. faecium KIH-237, collected from an imported chicken.
In data set [2] the test system is Enterococcus gallinarum KIH-241. Put plainly: MIC of antibiotics for the strain used. In kind it is cell-based.
Data set [3] has as its system Enterococcus faecalis KIH-C233. Put plainly: MIC of antibiotics for the strain used. The settings on record: E. faecalis KIH-C233, collected from a patient. In kind it is cell-based.
Data set [4] relates to Enterococcus faecium KIH-234. Kind of data set: MIC of antibiotics for the strain used. Type of data set: cell-based. The note with it: KIH234, E. faecium KIH-234, collected from a patient.
Data set [5] can be described thus: Solubility of hinokitiol in liquid carrier. Type of data set: physicochemical.
For data set [6] the following is noted: expected maximum; cited from earlier work.
The mark [7] stands for this setting: Enterococcus gallinarum, E. gallinarum KIH-241, collected from a chicken grown in Japan, read-out: MIC.
Where [8] appears, read: Enterococcus faecalis, KIHC233, read-out: MIC.

For the molecule `CC1(C)S[C@@H]2[C@H](NC(=O)Cc3ccccc3)C(=O)N2[C@H]1C(=O)O` [PCG, benzylpenicillin], the MIC in data set [1] came to 16 µg/mL; in data set [2] (setting [7]), 1 µg/mL; in data set [3] (setting [8]), 4 µg/mL; in data set [4] it was 16 µg/mL.

As to `C[C@@H](O)[C@H]1C(=O)N2C(C(=O)O)=C(SCCN=CN)C[C@H]12` [IPM, imipenem], the MIC in data set [2] (E. gallinarum KIH-241, collected from a chicken grown in Japan) stood at 1 µg/mL; in data set [3] it was 1 µg/mL.

`CC[C@H]1OC(=O)[C@H](C)[C@@H](O[C@H]2C[C@@](C)(OC)[C@@H](O)[C@H](C)O2)[C@H](C)[C@@H](O[C@@H]2O[C@H](C)C[C@H](N(C)C)[C@H]2O)[C@](C)(O)C[C@@H](C)C(=O)[C@H](C)[C@@H](O)[C@]1(C)O` [EM, erythromycin]: the MIC in data set [1] is greater than 32 µg/mL; in data set [2] (setting [7]), greater than 1 µg/mL; in data set [3] (setting [8]), greater than 32 µg/mL; in data set [4], greater than 32 µg/mL.

Turning to `CC(C)c1cccc(=O)c(O)c1` [hinokitiol, Hinokitiol], the “hinokitiol content achievable in the composition” value in data set [5] (alcohol as liquid carrier, without aloe extract and the like extract) was “up to 5 % by mass”. In addition, the “hinokitiol concentration obtainable in aqueous solution” value in data set [5] (water with surface active agent (glycerin fatty acid ester) and/or botanical emulsifier (quillaia saponin)) is given as “up to 10 % by mass”; in data set [5] (water, combined with the aloe extract and like extracts), “about 1 % by mass”.

For the molecule `CO[C@@]1(NC(=O)CSCC#N)C(=O)N2C(C(=O)O)=C(CSc3nnnn3C)CS[C@@H]21` [CMZ, cefmetazole], the MIC in data set [1], in data set [2] (setting [7]), in data set [3] (setting [8]) and in data set [4] was greater than 32 µg/mL in each case.

`CC1(C)S[C@@H]2[C@H](NC(=O)[C@H](N)c3ccccc3)C(=O)N2[C@H]1C(=O)O` [ABPC, aminobenzylpenicillin]: the MIC in data set [1] is 4 µg/mL; in data set [2] (setting [7]), 4 µg/mL; in data set [3] (setting [8]), 1 µg/mL; in data set [4], 16 µg/mL.

As for `CN[C@H](CC(C)C)C(=O)N[C@H]1C(=O)N[C@@H](CC(N)=O)C(=O)N[C@H]2C(=O)N[C@H]3C(=O)N[C@H](C(=O)N[C@H](C(=O)O)c4cc(O)cc(O)c4-c4cc3ccc4O)[C@H](O)c3ccc(c(Cl)c3)Oc3cc2cc(c3O[C@@H]2O[C@H](CO)[C@@H](O)[C@H](O)[C@H]2O[C@H]2C[C@](C)(N)[C@H](O)[C@H](C)O2)Oc2ccc(cc2Cl)[C@H]1O` [VCM, vancomycin], the MIC in data set [1] came to 500 µg/mL; in data set [2] (Enterococcus gallinarum, GALLINARUM) it was 8 µg/mL; in data set [3] (setting [8]) it was 2 µg/mL; in data set [4], 0.5 µg/mL. Further, in data set [6], the “concentration of vancomycin in blood at maximum” value was “no more than 6 μg/ml”.
